Results as given in US9475817B2 (BRISTOL-MYERS SQUIBB COMPANY, priority 2012, dated 2016).

How the values were obtained:
CK1ε = CK1ε (Homo sapiens (Human), UniProt P49674); test: CK1ε kinase assay (Caliper LabChip, fluoresceinated peptide substrate); assay type: biochemical; details: 200 pM CK1ε, 50 μM ATP, 1.5 μM peptide substrate, 22 hours room temperature
Method: (§1) CK1ε and CK1δ Kinase Assays
(§2) The kinase assay was performed in V-bottom 384-well plates. […] The reaction was incubated at room temperature for 22 hours and terminated by adding 45 μl of 35 mM EDTA to each sample. […] Compounds were dissolved at 10 mM in dimethylsulfoxide (DMSO) and evaluated at eleven concentrations. IC50 values were derived by non-linear regression analysis.

CK1δ = CK1δ (Homo sapiens (Human), UniProt P48730); test: CK1δ kinase assay (Caliper LabChip, fluoresceinated peptide substrate); assay type: biochemical; details: 200 pM CK1δ, 50 μM ATP, 1.5 μM peptide substrate, 22 hours room temperature
Method: as §1, §2

CK1δ, sequence (P48730 whole entry): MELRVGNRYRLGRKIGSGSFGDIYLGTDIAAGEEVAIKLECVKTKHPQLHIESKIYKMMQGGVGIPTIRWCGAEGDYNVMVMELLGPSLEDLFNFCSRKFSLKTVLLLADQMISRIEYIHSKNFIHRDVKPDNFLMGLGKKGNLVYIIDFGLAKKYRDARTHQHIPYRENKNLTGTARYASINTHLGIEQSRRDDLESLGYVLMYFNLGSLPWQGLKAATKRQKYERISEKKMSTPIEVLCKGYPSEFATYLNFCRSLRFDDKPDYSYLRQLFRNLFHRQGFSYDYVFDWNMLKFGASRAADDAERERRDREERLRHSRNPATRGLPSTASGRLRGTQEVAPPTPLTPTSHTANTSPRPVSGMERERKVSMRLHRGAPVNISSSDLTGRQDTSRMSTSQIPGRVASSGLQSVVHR
CK1ε, sequence (P49674 whole entry): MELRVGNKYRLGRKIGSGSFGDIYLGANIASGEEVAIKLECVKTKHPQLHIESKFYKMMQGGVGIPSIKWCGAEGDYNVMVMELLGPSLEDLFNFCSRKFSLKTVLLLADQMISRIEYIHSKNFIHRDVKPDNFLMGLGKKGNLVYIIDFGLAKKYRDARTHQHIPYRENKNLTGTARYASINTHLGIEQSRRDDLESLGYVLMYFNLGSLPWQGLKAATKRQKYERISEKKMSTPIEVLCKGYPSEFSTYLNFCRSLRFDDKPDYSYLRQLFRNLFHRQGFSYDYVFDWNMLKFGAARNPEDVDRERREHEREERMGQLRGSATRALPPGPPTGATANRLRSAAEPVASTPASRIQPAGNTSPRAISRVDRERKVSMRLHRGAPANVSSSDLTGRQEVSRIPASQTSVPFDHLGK

| Structure (SMILES) | IC50 (CK1ε) | IC50 (CK1δ) |
| --- | --- | --- |
| CN(C)c1ccc(C(=O)Nc2cn3nc(-c4cn(C)nc4-c4ccc(F)cc4)ccc3n2)cn1 [Compound 66, 6-(dimethylamino)-N-(6-(3-(4-fluorophenyl)-1-methyl-1H-pyrazol-4-yl)imidazo[1,2-b]pyridazin-2-yl)nicotinamide] | 6.6 nM | 2.8 nM |
| Cn1cc(-c2ccc3nc(NC(=O)c4cncc(O)c4)cn3n2)c(-c2ccc(F)cc2)n1 [Compound 70, N-(6-(3-(4-fluorophenyl)-1-methyl-1H-pyrazol-4-yl)imidazo[1,2-b]pyridazin-2-yl)-5-hydroxynicotinamide] | 4.7 nM | 2 nM |
| Cn1cc(-c2ccc3nc(NC(=O)c4ccc(-n5cccn5)nc4)cn3n2)c(-c2ccc(F)cc2)n1 [Compound 71, N-(6-(3-(4-fluorophenyl)-1-methyl-1H-pyrazol-4-yl)imidazo[1,2-b]pyridazin-2-yl)-6-(1H-pyrazol-1-yl)nicotinamide] | 17.3 nM | 3.8 nM |
| Cn1cc(-c2ccc3nc(NC(=O)c4ccc(C(F)(F)F)cn4)cn3n2)c(-c2ccc(F)cc2)n1 [Compound 74, N-(6-(3-(4-fluorophenyl)-1-methyl-1H-pyrazol-4-yl)imidazo[1,2-b]pyridazin-2-yl)-5-(trifluoromethyl) picolinamide] | 232 nM | 34.6 nM |
| COc1ccc(C(=O)Nc2cn3nc(-c4cn(C)nc4-c4ccc(F)cc4)ccc3n2)c(OC)n1 [Compound 75, N-(6-(3-(4-fluorophenyl)-1-methyl-1H-pyrazol-4-yl)imidazo[1,2-b]pyridazin-2-yl)-2,6-dimethoxynicotinamide] | 363 nM | 41 nM |
| Cc1ncccc1C(=O)Nc1cn2nc(-c3cn(C)nc3-c3ccc(F)cc3)ccc2n1 [Compound 78, N-(6-(3-(4-fluorophenyl)-1-methyl-1H-pyrazol-4-yl)imidazo[1,2-b]pyridazin-2-yl)-2-methylnicotinamide] | 11 nM | 3.3 nM |
| Cn1cc(-c2ccc3nc(NC(=O)c4ccccc4)cn3n2)c(-c2ccc(F)cc2)n1 [Compound 81, N-(6-(3-(4-fluorophenyl)-1-methyl-1H-pyrazol-4-yl)imidazo[1,2-b]pyridazin-2-yl)benzamide] | 5.6 nM | 5.4 nM |
| COc1ncc(C(=O)Nc2cn3nc(-c4cn(C)nc4-c4ccc(F)cc4)ccc3n2)cn1 [Compound 84, N-(6-(3-(4-fluorophenyl)-1-methyl-1H-pyrazol-4-yl)imidazo[1,2-b]pyridazin-2-yl)-2-methoxypyrimidine-5-carboxamide] | 1020 nM | 435 nM |
| Cn1cc(-c2ccc3nc(NC(=O)C4CC4)cn3n2)c(-c2ccc(F)cc2)n1 [Compound 85, N-(6-(3-(4-fluorophenyl)-1-methyl-1H-pyrazol-4-yl)imidazo[1,2-b]pyridazin-2-yl)cyclopropanecarboxamide] | 50.1 nM | 7 nM |
| Cn1cc(-c2ccc3nc(NC(=O)C4CCC4)cn3n2)c(-c2ccc(F)cc2)n1 [Compound 89, N-(6-(3-(4-fluorophenyl)-1-methyl-1H-pyrazol-4-yl)imidazo[1,2-b]pyridazin-2-yl)cyclobutanecarboxamide] | 25.8 nM | 7.1 nM |
| Cn1cc(-c2ccc3nc(NC(=O)C45CC6CC(CC(C6)C4)C5)cn3n2)c(-c2ccc(F)cc2)n1 [Compound 93, (3,5,7)-N-(6-(3-(4-fluorophenyl)-1-methyl-1H-pyrazol-4-yl)imidazo[1,2-b]pyridazin-2-yl)adamantane-1-carboxamide] | 6 nM | 4.1 nM |
| Cn1cc(-c2ccc3nc(NC(=O)C45CC6CC(C)(CC(C)(C6)C4)C5)cn3n2)c(-c2ccc(F)cc2)n1 [Compound 94, (1,3,5S7)-N-(6-(3-(4-fluorophenyl)-1-methyl-1H-pyrazol-4-yl)imidazo[1,2-b]pyridazin-2-yl)-3,5-dimethyladamantane-1-carboxamide] | 34.4 nM | 8.3 nM |
| Cn1cc(-c2ccc3nc(NC(=O)c4cc(O)ncn4)cn3n2)c(-c2ccc(F)cc2)n1 [Compound 100, N-(6-(3-(4-fluorophenyl)-1-methyl-1H-pyrazol-4-yl)imidazo[1,2-b]pyridazin-2-yl)-6-hydroxypyrimidine-4-carboxamide] | 28.8 nM | 9.4 nM |
| O=C(Nc1cn2nc(-c3cn(C4CC4)nc3-c3ccc(F)cc3)ccc2n1)c1ccncc1 [Compound 102, N-(6-(1-Cyclopropyl-3-(4-fluorophenyl)-1H-pyrazol-4-yl)imidazo[1,2-b]pyridazin-2-yl)isonicotinamide] | 9.9 nM | 3 nM |
| O=C(Nc1cn2nc(-c3cn(C4CC4)nc3-c3ccc(F)cc3)ccc2n1)c1csc(-c2ccncc2)n1 [Compound 103, N-(6-(1-Cyclopropyl-3-(4-fluorophenyl)-1H-pyrazol-4-yl)imidazo[1,2-b]pyridazin-2-yl)-2-(pyridin-4-yl)thiazole-4-carboxamide] | 74.9 nM | 8.5 nM |

Further molecules by falling IC50 (CK1ε), results first:

| IC50 (CK1ε) | IC50 (CK1δ) | Structure (SMILES) |
| --- | --- | --- |
| 170 nM | 28.1 nM | O=C(Nc1cn2nc(-c3cn(C4CC4)nc3-c3ccc(F)cc3)ccc2n1)C1CC1 [Compound 101, N-(6-(1-Cyclopropyl-3-(4-fluorophenyl)-1H-pyrazol-4-yl)imidazo[1,2-b]pyridazin-2-yl)cyclopropanecarboxamide] |
| 71.5 nM | 3.3 nM | Cn1cc(-c2ccc3nc(NC(=O)c4ncc(-c5ccccn5)s4)cn3n2)c(-c2ccc(F)cc2)n1 [Compound 82, N-(6-(3-(4-fluorophenyl)-1-methyl-1H-pyrazol-4-yl)imidazo[1,2-b]pyridazin-2-yl)-5-(pyridin-2-yl)thiazole-2-carboxamide] |
| 64 nM | 11.9 nM | CCc1ccc(C(=O)Nc2cn3nc(-c4cn(C)nc4-c4ccc(F)cc4)ccc3n2)nc1 [Compound 76, 5-ethyl-N-(6-(3-(4-fluorrophenyl)-1-methyl-1H-pyrazol-4-yl)imidazo[1,2-b]pyridazin-2-yl)picolinamide] |
| 47.3 nM | 10.3 nM | Cn1cc(-c2ccc3nc(NC(=O)CC(F)(F)F)cn3n2)c(-c2ccc(F)cc2)n1 [Compound 99, 3,3,3-trifluoro-N-(6-(3-(4-fluorophenyl)-1-methyl-1H-pyrazol-4-yl)imidazo[1,2-b]pyridazin-2-yl)propanamide] |
| 42 nM | 11.8 nM | Cn1cc(-c2ccc3nc(NC(=O)c4ccccn4)cn3n2)c(-c2ccc(F)cc2)n1 [Compound 96, N-(6-(3-(4-fluorophenyl)-1-methyl-1H-pyrazol-4-yl)imidazo[1,2-b]pyridazin-2-yl)picolinamide] |
| 28.1 nM | 4.4 nM | Cn1cc(-c2ccc3nc(NC(=O)c4ccc(OCC(F)(F)F)nc4)cn3n2)c(-c2ccc(F)cc2)n1 [Compound 68, N-(6-(3-(4-fluorrophenyl)-1-methyl-1H-pyrazol-4-yl)imidazo[1,2-b]pyridazin-2-yl)-6-(2,2,2-trifluoroethoxy)nicotinamide] |
| 27.8 nM | 10 nM | Cn1cc(-c2ccc3nc(NC(=O)c4ccc(CCN5CCCC5)nc4)cn3n2)c(-c2ccc(F)cc2)n1 [Compound 72, N-(6-(3-(4-fluorophenyl)-1-methyl-1H-pyrazol-4-yl)imidazo[1,2-b]pyridazin-2-yl)-6-(2-(pyrrolidin-1-yl)ethyl)nicotinamide] |
| 17.2 nM | 6.5 nM | Cc1nc(C(F)(F)F)ccc1C(=O)Nc1cn2nc(-c3cn(C)nc3-c3ccc(F)cc3)ccc2n1 [Compound 95, N-(6-(3-(4-fluorophenyl)-1-methyl-1H-pyrazol-4-yl)imidazo[1,2-b]pyridazin-2-yl)-2-methyl-6-(trifluoromethyl)nicotinamide] |
| 15.7 nM | 5.6 nM | Cn1cc(-c2ccc3nc(NC(=O)C4CCCC4)cn3n2)c(-c2ccc(F)cc2)n1 [Compound 86, N-(6-(3-(4-fluorophenyl)-1-methyl-1H-pyrazol-4-yl)imidazo[1,2-b]pyridazin-2-yl)cyclopentanecarboxamide] |
| 15.2 nM | 3.2 nM | O=C(Nc1cn2nc(-c3cn(C4CC4)nc3-c3ccc(F)cc3)ccc2n1)c1ccnc(F)c1 [Compound 104, N-(6-(1-cyclopropyl-3-(4-fluorophenyl)-1H-pyrazol-4-yl)imidazo[1,2-b]pyridazin-2-yl)-2-fluoroisonicotinamide] |
| 13.3 nM | 14.2 nM | COc1cccc(C(=O)Nc2cn3nc(-c4cn(C)nc4-c4ccc(F)cc4)ccc3n2)n1 [Compound 67, N-(6-(3-(4-fluorophenyl)-1-methyl-1H-pyrazol-4-yl)imidazo[1,2-b]pyridazin-2-yl)-6-methoxypicolinamide] |
| 10.5 nM | 4.2 nM | Cn1cc(-c2ccc3nc(NC(=O)C4CCCCCC4)cn3n2)c(-c2ccc(F)cc2)n1 [Compound 88] |
| 10.5 nM | 5.5 nM | Cn1cc(-c2ccc3nc(NC(=O)C45CCCC(CCC4)C5)cn3n2)c(-c2ccc(F)cc2)n1 [Compound 92, N-(6-(3-(4-fluorophenyl)-1-methyl-1H-pyrazol-4-yl)imidazo[1,2-b]pyridazin-2-yl)bicyclo[3.3.1]nonane-1-carboxamide] |
| 6.4 nM | 2.6 nM | Cc1ccncc1C(=O)Nc1cn2nc(-c3cn(C)nc3-c3ccc(F)cc3)ccc2n1 [Compound 73, N-(6-(3-(4-fluorophenyl)-1-methyl-1H-pyrazol-4-yl)imidazo[1,2-b]pyridazin-2-yl)-4-methylnicotinamide] |
| 4.8 nM | 2.3 nM | Cn1cc(-c2ccc3nc(NC(=O)c4ccnc(N5CCOCC5)c4)cn3n2)c(-c2ccc(F)cc2)n1 [Compound 69, N-(6-(3-(4-fluorophenyl)-1-methyl-1H-pyrazol-4-yl)imidazo[1,2-b]pyridazin-2-yl)-2-morpholinoisonicotinamide] |
